System: human BCL11A erythroid enhancer
Assay: Tiled pooled CRISPR-Cas9 screen for in situ functional mapping of the human BCL11A erythroid enhancer (HbF-high/HbF-low sort, sgRNA deep sequencing)
Type: cell-based
Conditions: for Enrichment Score: HbF enrichment, human library NGG and NGG RC sgRNAs filtered for enrichment score >0.259; for Dropout Score: human library sgRNAs that produced HbF enrichment over 0.259
Description: Every 20-mer sequence upstream of an NGG or NAG PAM sequence on the sense or anti-sense strand was identified for both the human and mouse orthologous +55, +58, and +62 DNase hypersensitive site (DHS) as well as BCL11A/BCL11a exon 2. Relative to the human hg 19 reference genome, a reference was used with the following substitutions to approximate a common low-HbF associated haplotype: rs1427407-G, rs1896293-T, rs6706648-T, rs6738440-G, rs7606173-C. Each of the sgRNA oligos were synthesized as previously described (37,41,64) and cloned using a Gibson Assembly master mix (New England Biolabs) into lentiGuide-Puro (Addgene plasmid ID 52963) BsmBI digested, PCR purified, and dephosphorylated. Gibson Assembly products were transformed to electrocompetent E. cloni cells (Lucigen). Sufficient colonies were isolated to ensure 90X library coverage for both human and mouse libraries. Plasmid libraries were deep sequenced (described below) to confirm representation.
Tiled Pooled CRISPR-Cas9 Screen for In Situ Functional Mapping the Human BCL11A Erythroid Enhancer.
HUDEP clone 2 (HUDEP-2) was utilized as previously described by from Nakamura and colleagues (49). HUDEP-2 cells were expanded in StemSpan SFEM (Stem Cell Technologies) supplemented with 10^−6 M dexamethasone (Sigma), 100 ng/mL human stem cell factor (SCF) (R&D), 3 IU/mL erythropoietin (Amgen), 1% L-glutamine (Life Technologies), and 2% penicillin/streptomycin (Life Technologies). 1 μg/mL doxycycline (Sigma) was included in the culture to induce expression of the human papilloma virus type 16 E6/E7 genes (49). HUDEP-2 cells were differentiated in Iscove's Modified Dulbecco's Medium (IMDM) supplemented with 330 μg/mL halo-transferrin (Sigma), 10 μg/mL recombinant human insulin (Sigma), 2 IU/mL heparin (Sigma), 5% human solvent detergent pooled plasma AB (Rhode Island Blood Center), 3 IU/mL erythropoietin (Amgen), 100 ng/mL human stem cell factor (SCF) (R&D), 1 μg/mL doxycycline (Sigma), 1% L-glutamine (Life Technologies), and 2% penicillin/streptomycin (Life Technologies).
HUDEP-2 cells with stable Cas9 expression were transduced at low multiplicity with the human sgRNA library lentivirus pool while in expansion medium. […] Cell numbers were maintained throughout the experiment at levels adequate to exceed 1000× representation of the library. 10 μg/mL blasticidin (Sigma) and 1 μg/mL puromycin (Sigma) were added 24 hours after transduction to select for lentiviral library integrants in cells with Cas9. Cells were cultured in expansion media for one week followed by differentiation media for an additional week.
Intracellular staining was performed by fixing cells with 0.05% glutaraldehyde (grade II) (Sigma) for 10 minutes at room temperature. Cells were centrifuged for 5 minutes at 350 g and then resuspended in 0.1% Triton-X100 (Life Technologies) for 5 minutes at room temperature for permeabilization. Triton X-100 was diluted with phosphate buffered saline (PBS) and then centrifuged at 350 g for 15 minutes. Cells were stained with anti-human antibodies for HbF (clone HbF-1 with FITC or APC conjugation; Life Technologies) and B-hemoglobin antibody (clone 37-8 with PerCP-Cy5 or PE conjugation; Santa Cruz) for 20 minutes in the dark. Cells were washed to remove unbound antibody prior to FACS analysis. 0.2 μg HbF and 2 μg of HbA CB-hemoglobin) antibodies were used per 5 million cells. Control cells exposed to a nontargeting sgRNA sample and BCL11A exon 2 were used as negative and positive controls respectively to establish flow cytometry conditions. Populations of cells with the top and bottom 10% of expression of HbF were sorted by FACS.
After sorting the HbF-high and HbF-low pools, library preparation and deep sequencing was performed as previously described (37). Briefly, genomic DNA was extracted using the Qiagen Blood and Tissue kit. […]

Substance	Enrichment Score	Dropout Score
BCL_01461_H_D55 (guide GCCCTGCTGGTTATCACTGTNGGRC; listed as DNA, chemistry not given here)	0.5924	−0.5115
BCL_01833_H_D62 (guide AGTTCAAGTAGATATCAGAANGGRC; listed as DNA, chemistry not given here)	0.6116	0.2289
BCL_00084_H_D55 (guide AGGGTGTGCCCTGAGAAGGTNGG; listed as DNA, chemistry not given here)	0.311	−0.3691
BCL_02002_H_exon2 (guide AAAATAAGAATGTCCCCCAANGGRC; listed as DNA, chemistry not given here)	0.505	−0.4259
BCL_00259_H_exon2 (guide CCAGATGAACTTCCCATTGGNGG; listed as DNA, chemistry not given here)	3.266	−3.321
BCL_01427_H_D55 (guide GGCTAAATAATGAATGTCCCNGGRC; listed as DNA, chemistry not given here)	0.367	−0.2716
BCL_00093_H_D55 (guide TCCCTTCCTAGAATTGGCCTNGG; listed as DNA, chemistry not given here)	0.5283	−0.5616
BCL_00253_H_exon2 (guide CCCGTTGGGAGCTCCAGAAGNGG; listed as DNA, chemistry not given here)	1.205	−1.968
BCL_01617_H_D58 (guide CTAACAGTTGCTTTTATCACNGGRC; listed as DNA, chemistry not given here)	2.495	−0.7193
BCL_00064_H_D55 (guide TGCCAACAGTGATAACCAGCNGG; listed as DNA, chemistry not given here)	0.5108	−0.3581
BCL_00065_H_D55 (guide GCCAACAGTGATAACCAGCANGG; listed as DNA, chemistry not given here)	0.4886	−0.5415
BCL_00229_H_D62 (guide CCCAGCACTTTGGGAGGCCGNGG; listed as DNA, chemistry not given here)	0.6113	−8.717
BCL_01800_H_D62 (guide GCCCCGGCCTCCCAAAGTGCNGGRC; listed as DNA, chemistry not given here)	0.6113	−7.65
BCL_01618_H_D58 (guide TTGCTTTTATCACAGGCTCCNGGRC; listed as DNA, chemistry not given here)	0.8561	−0.8127
BCL_00085_H_D55 (guide GGGTGTGCCCTGAGAAGGTGNGG; listed as DNA, chemistry not given here)	0.5011	−0.6263
BCL_01831_H_D62 (guide GGGTGGCTGTTTAAAGAGGGNGGRC; listed as DNA, chemistry not given here)	0.4104	−0.1486
BCL_00263_H_exon2 (guide GAAAAAAGCATCCAATCCCGNGG; listed as DNA, chemistry not given here)	0.6213	−2.115
BCL_01622_H_D58 (guide GAAGGGTTTGGCCTCTGATTNGGRC; listed as DNA, chemistry not given here)	1.378	−0.6695
BCL_00088_H_D55 (guide GCATCATCCTGGTACCAGGANGG; listed as DNA, chemistry not given here)	0.4386	−0.3713

Substance	Enrichment Score	Dropout Score
BCL_00239_H_D62 (guide GCCTGTAATCTCAGCTACTCNGG; listed as DNA, chemistry not given here)	1.916	−6.031
BCL_01639_H_D58 (guide ATCGGTGGCCGTTTGCCCAGNGGRC; listed as DNA, chemistry not given here)	0.8219	−0.8981
BCL_02004_H_exon2 (guide CCCCCAATGGGAAGTTCATCNGGRC; listed as DNA, chemistry not given here)	0.4685	−0.1189
BCL_00256_H_exon2 (guide GTGCCAGATGAACTTCCCATNGG; listed as DNA, chemistry not given here)	1.89	−1.764
BCL_00187_H_D58 (guide ATCAGAGGCCAAACCCTTCCNGG; listed as DNA, chemistry not given here)	2.122	−0.7444
BCL_01998_H_exon2 (guide TTTCATCTCGATTGGTGAAGNGGRC; listed as DNA, chemistry not given here)	0.3489	−0.1426
BCL_01994_H_exon2 (guide GATGCCAACCTCCACGGGATNGGRC; listed as DNA, chemistry not given here)	1.11	−0.9904
BCL_01637_H_D58 (guide CCATCGGTGGCCGTTTGCCCNGGRC; listed as DNA, chemistry not given here)	0.669	−0.5016
BCL_00186_H_D58 (guide CACGCCCCCACCCTAATCAGNGG; listed as DNA, chemistry not given here)	0.8971	−0.7965
BCL_00228_H_D62 (guide TCCCAGCACTTTGGGAGGCCNGG; listed as DNA, chemistry not given here)	0.761	−5.658
BCL_00185_H_D58 (guide GCAAACGGCCACCGATGGAGNGG; listed as DNA, chemistry not given here)	0.3196	−0.516
BCL_01449_H_D55 (guide GTGCTTGGTCGGCACTGATANGGRC; listed as DNA, chemistry not given here)	1.134	−0.6101
BCL_00091_H_D55 (guide CCCACTTCCCTTCCTAGAATNGG; listed as DNA, chemistry not given here)	1.168	−0.5042
BCL_00184_H_D58 (guide CCTGGGCAAACGGCCACCGANGG; listed as DNA, chemistry not given here)	0.3155	−0.5414
BCL_00051_H_D55 (guide GGAGGTGTGGAGGGGATAACNGG; listed as DNA, chemistry not given here)	0.3141	−0.1655
BCL_00154_H_D58 (guide AGGGAAAAGGGAGAGGAAAANGG; listed as DNA, chemistry not given here)	0.4446	−0.3992
BCL_01989_H_exon2 (guide CTGCTATGTGTTCCTGTTTGNGGRC; listed as DNA, chemistry not given here)	0.6201	0.0332
BCL_00182_H_D58 (guide CTTCCGAAAGAGGCCCCCCTNGG; listed as DNA, chemistry not given here)	0.2942	0.02396
